Measurements: US7238362B2, “Dithianon-based fungicidal mixtures” (BASF Aktiengesellschaft, priority 2002, dated 2007)

Test system: Alternaria solani
Assay: Activity against early blight of tomato caused by Alternaria solani (protective spray, potted tomato plants)
Assay type: in vivo
Conditions: individual active compound, tomato leaves, evaluated after 5 days
Experimental: The active compounds were prepared separately as a stock solution comprising 0.25% by weight of active compound in acetone or DMSO. 1% by weight of the emulsifier Uniperol® EL (wetting agent having emulsifying and dispersing action based on ethoxylated alkylphenols) was added to this solution, and the mixture was diluted with water to the desired concentration.
Leaves of potted plants of the cultivar “Groβe Fleischtomate St. Pierre” were sprayed to runoff point with an aqueous suspension having the concentration of active compounds stated below. The next day, the leaves were infected with an aqueous […] suspension of Alternaria solani in 2% biomalt solution having a density of 0.17×10^6 spores/ml. The plants were then placed in a water-vapor-saturated chamber at temperatures of between 20 and 22 C. After 5 days, the infection on the leaves of the untreated, but infected control plants had developed to such an extent that the infection could be determined visually in %.
Evaluation was carried out by determining the infected leaf area in per cent. These percentages were converted into efficacies.
The efficacy (E) is calculated as follows using Abbot's formula: E=(1−α/β)·100 • α corresponds to the fungal infection of the treated plants in % and • β corresponds to the fungal infection of the untreated (control) plants in %
An efficacy of 0 means that the infection level of the treated plants corresponds to that of the untreated control plants; an efficacy of 100 means that the treated plants were not infected. […]

O=C(Nc1ccccc1-c1ccc(Cl)cc1)c1cccnc1Cl [II-1, boscalid]
Efficacy in % of the untreated control (8 ppm in the spray liquor): 63%
Efficacy in % of the untreated control (16 ppm in the spray liquor): 76%
Efficacy in % of the untreated control (31 ppm in the spray liquor): 82%
Efficacy in % of the untreated control (63 ppm in the spray liquor): 88%

O=C(Nc1ccccc1-c1ccc(F)cc1)c1cccnc1Cl [II-2]
Efficacy in % of the untreated control (8 ppm in the spray liquor): 27%
Efficacy in % of the untreated control (16 ppm in the spray liquor): 39%
Efficacy in % of the untreated control (31 ppm in the spray liquor): 27%
Efficacy in % of the untreated control (63 ppm in the spray liquor): 88%

N#Cc1sc2c(=O)c3ccccc3c(=O)c=2sc1C#N [I, dithianon]
Efficacy in % of the untreated control (8 ppm in the spray liquor): 0%
Efficacy in % of the untreated control (16 ppm in the spray liquor): 0%
Efficacy in % of the untreated control (31 ppm in the spray liquor): 27%
Efficacy in % of the untreated control (63 ppm in the spray liquor): 63%
